Test results taken from paper PMC4177392, “Modulation of Cytochrome P450 Metabolism and Transport across Intestinal Epithelial Barrier by Ginger Biophenolics” (PLoS ONE, 2014).
Values after ≈ are worked out from the molar mass of the structure shown.

Columns and labels:
CYP2B6 = biological target: T1, CYP2B6 (Homo sapiens, UniProt P20813); test: CYP2B6 inhibition in human liver microsomes (substrate bupropion); assay type: in vitro ADME
T1 sequence (P20813 1-491): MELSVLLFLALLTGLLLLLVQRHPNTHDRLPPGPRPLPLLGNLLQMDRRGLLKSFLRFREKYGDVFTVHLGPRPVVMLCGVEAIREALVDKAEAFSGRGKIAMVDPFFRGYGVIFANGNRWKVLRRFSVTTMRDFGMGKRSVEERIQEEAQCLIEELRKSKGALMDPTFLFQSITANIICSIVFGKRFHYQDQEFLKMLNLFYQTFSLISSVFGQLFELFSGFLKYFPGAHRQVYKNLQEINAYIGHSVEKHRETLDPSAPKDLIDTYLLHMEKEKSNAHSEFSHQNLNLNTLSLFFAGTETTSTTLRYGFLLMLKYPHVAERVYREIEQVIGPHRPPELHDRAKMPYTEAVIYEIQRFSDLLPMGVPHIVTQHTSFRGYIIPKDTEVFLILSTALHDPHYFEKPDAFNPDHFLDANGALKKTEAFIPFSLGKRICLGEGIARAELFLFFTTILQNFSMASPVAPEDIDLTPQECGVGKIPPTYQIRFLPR
Description: (§1) The highest concentration of GE used in the assay was 500 µg/mL equivalent. Stock solution for each CYP specific probe substrate was prepared in such a way that the final concentration is below the reported Km value.
(§2) A microsome-buffer-substrate mixture (MBS mix) was prepared for each isozyme by pre-mixing appropriate volumes of sodium phosphate buffer (pH 7.4, 50 mM), microsomes and substrate (Table S2 in File S1). 179 µL of MBS mix was transferred to 96-well reaction plate to which 1 µL of inhibitor stock solution was added to achieve the final target inhibitor concentration. The reaction plate was pre-incubated for 10 min at 37°C followed by reaction initiation by addition of 20 µL of 10 mM NADPH solution. The reaction plate was then incubated at 37°C for a predetermined time period following which it was quenched with 200 µL ACN for all CYPs and 200 µL 1% formic acid in water∶ACN (70∶30) for CYP1A2. In all cases, the final incubations after addition of substrate and inhibitor contained 0.1% DMSO (v/v), and the total organic solvent (DMSO and ACN) content was less than or equal to 1% (v/v). […] The incubations were performed in singlet for individual gingerols and in duplicate for GE along with respective positive controls.
(§3) The IC50 value was estimated from the percentage reduction in CYP activity at eleven inhibitor concentrations with respect to control.

CYP2A6 = biological target: T2, CYP2A6 (Homo sapiens, UniProt P11509); test: CYP2A6 inhibition in human liver microsomes (substrate coumarin); assay type: in vitro ADME
T2 sequence (P11509 1-494): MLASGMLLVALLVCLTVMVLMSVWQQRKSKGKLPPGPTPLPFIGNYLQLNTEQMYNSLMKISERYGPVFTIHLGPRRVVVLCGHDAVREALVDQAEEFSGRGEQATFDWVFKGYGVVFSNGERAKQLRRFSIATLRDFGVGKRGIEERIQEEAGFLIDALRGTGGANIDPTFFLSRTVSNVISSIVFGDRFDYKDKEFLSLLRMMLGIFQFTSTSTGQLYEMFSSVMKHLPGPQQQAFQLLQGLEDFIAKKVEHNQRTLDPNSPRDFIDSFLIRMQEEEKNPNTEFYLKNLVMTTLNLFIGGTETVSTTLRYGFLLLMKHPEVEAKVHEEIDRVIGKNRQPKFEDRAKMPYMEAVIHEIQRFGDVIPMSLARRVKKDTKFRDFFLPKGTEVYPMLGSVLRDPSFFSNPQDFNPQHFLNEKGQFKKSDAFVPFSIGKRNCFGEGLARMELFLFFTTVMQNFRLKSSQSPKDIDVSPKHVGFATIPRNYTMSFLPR
Description: as §1, §2, §3

CYP3A4 = CYP3A4 (Homo sapiens, UniProt P08684); test: CYP3A4 inhibition in human liver microsomes (substrate midazolam); assay type: in vitro ADME; settings: for IC50 CYP3A4 (midazolam): human liver microsomes, substrate midazolam, gingerols and GE
CYP3A4, sequence (P08684 2-503): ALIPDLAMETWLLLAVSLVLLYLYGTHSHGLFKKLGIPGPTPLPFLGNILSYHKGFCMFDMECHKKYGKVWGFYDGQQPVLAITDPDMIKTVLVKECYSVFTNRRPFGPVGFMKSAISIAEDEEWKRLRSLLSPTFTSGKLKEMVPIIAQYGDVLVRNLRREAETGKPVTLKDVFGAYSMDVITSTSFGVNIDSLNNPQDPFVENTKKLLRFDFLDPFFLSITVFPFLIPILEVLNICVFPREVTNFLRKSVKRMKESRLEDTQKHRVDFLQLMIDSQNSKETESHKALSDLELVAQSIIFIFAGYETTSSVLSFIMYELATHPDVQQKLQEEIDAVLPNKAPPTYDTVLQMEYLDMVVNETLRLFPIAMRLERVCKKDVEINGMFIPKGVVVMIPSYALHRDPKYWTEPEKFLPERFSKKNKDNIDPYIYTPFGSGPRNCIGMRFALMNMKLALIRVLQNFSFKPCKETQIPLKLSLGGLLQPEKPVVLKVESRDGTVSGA
Description: as §1
(§4) A microsome-buffer-substrate mixture (MBS mix) was prepared for each isozyme by pre-mixing appropriate volumes of sodium phosphate buffer (pH 7.4, 50 mM), microsomes and substrate (Table S2 in File S1). 179 µL of MBS mix was transferred to 96-well reaction plate to which 1 µL of inhibitor stock solution was added to achieve the final target inhibitor concentration. The reaction plate was pre-incubated for 10 min at 37°C followed by reaction initiation by addition of 20 µL of 10 mM NADPH solution. The reaction plate was then incubated at 37°C for a predetermined time period following which it was quenched with 200 µL ACN for all CYPs and 200 µL 1% formic acid in water∶ACN (70∶30) for CYP1A2. In all cases, the final incubations after addition of substrate and inhibitor contained 0.1% DMSO (v/v), and the total organic solvent (DMSO and ACN) content was less than or equal to 1% (v/v). The details of final substrate concentration, incubation time, microsomal protein concentration in the reaction mixtures and the metabolites monitored for each isozyme tested are presented in Table S3 in File S1. The incubations were performed in singlet for individual gingerols and in duplicate for GE along with respective positive controls.
(§5) All samples were processed using protein precipitation method and analyzed by employing positive (for all CYPs) and negative (for CYP2A6, 2C19 and 2E1) ionization mode in liquid chromatography tandem mass spectrometry (API4000, Applied Biosystems, USA). The peak area ratio of analyte to IS was used for calculations. An isocratic method comprising 5 mM ammonium formate and ACN (40∶60) with 0.05% formic acid was used for elution. For CYP2C19, a mobile phase consisting of 5 mM ammonium formate and ACN (30∶70) was used. The analytes and internal standards were retained on BDS Hypersil Phenyl (150×4.6 mm, 5 µ, Thermo, USA) column. A flow rate of 0.5 mL/min (CYP1A2), 0.6 mL/min (CYP2C19, CYP2E1), 0.7 mL/min (CYP2C9), 0.8 mL/min (CYP2A6, CYP3A), 1.0 mL/min (CYP2B6, CYP2C8, CYP2D6) was maintained using Shimadzu Prominence solvent delivery system (LC-20AD). The mobile phase was degassed using degasser (DGU-20A3), samples were loaded into autosampler (SIL-HTc) and the column temperature was maintained at 40°C by column oven (CTO-20A). […]

[1] = Caco-2 permeability assay; settings: human; for recovery at 120 min, 10 µM: Caco-2, pH 7.4, Mass Balance (recovery); for Papp at 120 min, 10 µM: Caco-2, pH 7.4, Papp, n = 3, mean ± SD
Description: Caco-2 cells were seeded on tissue culture inserts at a density of 80,000 cells/insert. The cells were maintained for 21 days in culture medium to enable differentiation and formation of the monolayer. The culture medium was changed every alternate day.
Stock solutions (1 mM) of individual gingerols were prepared in DMSO, which were then spiked into the buffer to obtain a final assay concentration of 10 µM. HBSS-HEPES buffer was prepared by dissolving 9.7 g Hank's balanced salts, 0.37 g sodium bicarbonate, 3.50 g glucose and 2.38 g HEPES in Milli-Q water (1 L). The pH of the buffer was adjusted to 7.4 using either 1N hydrochloric acid or 1N sodium hydroxide.
Permeability of gingerols (10 µM) was determined in apical to basolateral (A-B) and basolateral to apical (B-A) directions. Transport studies were conducted between 21–25 days post seeding in 12-well Transwell inserts. Following pre-incubation in HBSS-HEPES buffer at 37°C, 5% CO2 for 30 min, buffer was removed and gingerols spiked buffer was added to each donor compartment (triplicate wells). Blank HBSS-HEPES buffer containing 1% DMSO was added to the receiver compartment. Samples were withdrawn from the receiver chamber at 30, 60, 90, and 120 min, and from the donor chamber at 0 and 120 min. The samples were collected in tubes containing equal volume of ACN. The withdrawn volume was replaced with buffer containing 1% DMSO. At the end of the experiment, cells were washed with ice-cold buffer and lysed with ACN to assess cell accumulation and estimate the recovery. Monolayers with transepithelial electrical resistance (TEER) above 300 Ωcm^2 were considered for the assay and after the assay TEER values were above 300 Ωcm^2 confirming the monolayer integrity during the experiment.
Samples were processed using protein precipitation method and analyzed using LC/MS/MS. A calibration curve (CC) of 5 nM to 10,000 nM range was employed to quantify the samples. […] Separation was achieved using Zorbax C18 column (50×4.6 mm, 3.5 µ, Agilent) for 8G, 10G, 6S and using Hypurity C18 column (100×4.6 mm, 5 µ, Thermo) for 6G. An injection volume of 20 µL was used for all samples and a flow rate of 0.6 mL/min (6G) and 1 mL/min (8G, 10G and 6S) was used for elution.
Cumulative amount of gingerols transported at each time point was plotted as function of time. The slope was used to calculate the rate of appearance of gingerols (dQ/dt).
Apparent permeability (Papp) was calculated using the formula [drawing 4] dQ/dt – rate of transport to receiver side

CYP2C9 = CYP2C9 (Homo sapiens, UniProt P11712); test: CYP2C9 inhibition in human liver microsomes (substrate diclofenac)
CYP2C9, sequence (P11712 whole entry): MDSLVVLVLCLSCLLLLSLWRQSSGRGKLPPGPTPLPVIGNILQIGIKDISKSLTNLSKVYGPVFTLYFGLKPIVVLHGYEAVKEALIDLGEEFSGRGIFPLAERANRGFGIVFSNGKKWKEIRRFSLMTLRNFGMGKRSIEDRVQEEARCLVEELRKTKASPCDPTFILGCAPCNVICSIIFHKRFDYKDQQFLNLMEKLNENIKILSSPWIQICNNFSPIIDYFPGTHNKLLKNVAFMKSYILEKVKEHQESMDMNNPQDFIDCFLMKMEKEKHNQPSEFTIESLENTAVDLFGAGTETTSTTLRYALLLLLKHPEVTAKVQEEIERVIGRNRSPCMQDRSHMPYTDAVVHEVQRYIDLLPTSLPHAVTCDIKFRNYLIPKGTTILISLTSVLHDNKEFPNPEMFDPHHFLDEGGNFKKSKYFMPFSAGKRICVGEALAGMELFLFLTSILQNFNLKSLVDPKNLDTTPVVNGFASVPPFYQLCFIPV
Description: Stock solution for each CYP specific probe substrate was prepared in such a way that the final concentration is below the reported Km value.
A microsome-buffer-substrate mixture (MBS mix) was prepared for each isozyme by pre-mixing appropriate volumes of sodium phosphate buffer (pH 7.4, 50 mM), microsomes and substrate (Table S2 in File S1). 179 µL of MBS mix was transferred to 96-well reaction plate to which 1 µL of inhibitor stock solution was added to achieve the final target inhibitor concentration. The reaction plate was pre-incubated for 10 min at 37°C followed by reaction initiation by addition of 20 µL of 10 mM NADPH solution. The reaction plate was then incubated at 37°C for a predetermined time period following which it was quenched with 200 µL ACN for all CYPs and 200 µL 1% formic acid in water∶ACN (70∶30) for CYP1A2. In all cases, the final incubations after addition of substrate and inhibitor contained 0.1% DMSO (v/v), and the total organic solvent (DMSO and ACN) content was less than or equal to 1% (v/v). The details of final substrate concentration, incubation time, microsomal protein concentration in the reaction mixtures and the metabolites monitored for each isozyme tested are presented in Table S3 in File S1.
All samples were processed using protein precipitation method and analyzed by employing positive (for all CYPs) and negative (for CYP2A6, 2C19 and 2E1) ionization mode in liquid chromatography tandem mass spectrometry (API4000, Applied Biosystems, USA). The peak area ratio of analyte to IS was used for calculations. An isocratic method comprising 5 mM ammonium formate and ACN (40∶60) with 0.05% formic acid was used for elution. For CYP2C19, a mobile phase consisting of 5 mM ammonium formate and ACN (30∶70) was used. The analytes and internal standards were retained on BDS Hypersil Phenyl (150×4.6 mm, 5 µ, Thermo, USA) column. A flow rate of 0.5 mL/min (CYP1A2), 0.6 mL/min (CYP2C19, CYP2E1), 0.7 mL/min (CYP2C9), 0.8 mL/min (CYP2A6, CYP3A), 1.0 mL/min (CYP2B6, CYP2C8, CYP2D6) was maintained using Shimadzu Prominence solvent delivery system (LC-20AD). The mobile phase was degassed using degasser (DGU-20A3), samples were loaded into autosampler (SIL-HTc) and the column temperature was maintained at 40°C by column oven (CTO-20A). Injection volumes for the samples were as follows: 5 µL (CYP1A2, CYP2D6, and CYP3A), 10 µL (CYP2B6, CYP2C8, and CYP2E1) and 20 µL (CYP2A6, CYP2C9, and CYP2C19). Data was collected and processed using Sciex Analyst 1.4.2. […]
The data was analysed using 4PL (parameter logistic model), 3PLFB (bottom fixed), 3PLFT (top fixed), 2PL (top and bottom fixed), and the relative IC50 was with lowest standard error was further manipulation. Absolute IC50 was calculated from this relative IC50 by using the equation below: [drawing 3]

CYP2C19 = CYP2C19 (Homo sapiens, UniProt P33261); test: CYP2C19 inhibition in human liver microsomes (substrate (S)-mephenytoin); assay type: in vitro ADME
CYP2C19, sequence (P33261 whole entry): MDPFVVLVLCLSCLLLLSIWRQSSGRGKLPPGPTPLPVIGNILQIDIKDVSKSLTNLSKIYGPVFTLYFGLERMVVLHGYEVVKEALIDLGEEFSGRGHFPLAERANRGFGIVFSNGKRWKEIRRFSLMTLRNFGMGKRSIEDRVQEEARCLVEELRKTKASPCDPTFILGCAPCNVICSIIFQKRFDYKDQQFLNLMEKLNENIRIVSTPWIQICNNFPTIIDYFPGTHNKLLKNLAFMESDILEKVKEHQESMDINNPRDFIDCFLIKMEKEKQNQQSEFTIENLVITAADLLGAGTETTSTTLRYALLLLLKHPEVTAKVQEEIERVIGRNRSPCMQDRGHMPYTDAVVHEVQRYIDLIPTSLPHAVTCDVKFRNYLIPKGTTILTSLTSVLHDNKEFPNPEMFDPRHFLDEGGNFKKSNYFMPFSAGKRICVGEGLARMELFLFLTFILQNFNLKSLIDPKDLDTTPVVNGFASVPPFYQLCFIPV
Description: as §1, §4, §5

[2] = human liver microsomes, substrate bupropion, gingerols and GE
[3] = human liver microsomes, substrate coumarin, gingerols and GE
[4] = human liver microsomes, substrate diclofenac, gingerols and GE
[5] = human liver microsomes, substrate (S)-mephenytoin, gingerols and GE

SMILES: CCCCC[C@H](O)CC(=O)CCc1ccc(O)c(OC)c1 [6G, 6-gingerol]
- IC50 (CYP2B6): 51 µM
- IC50 (CYP2A6): > 98.5 µM
- IC50 (CYP3A4): > 98.5 µM
- efflux ratio at 120 min, 10 µM ([1]; Caco-2, pH 7.4, Efflux Ratio): < 2
- recovery at 120 min, 10 µM ([1]; A→B): < 50%
- recovery at 120 min, 10 µM ([1]; B→A): 77%
- Papp at 120 min, 10 µM ([1]; A→B): > 10 ×10⁻⁶ cm/s
- Papp at 120 min, 10 µM ([1]; B→A): > 10 ×10⁻⁶ cm/s
- IC50 (CYP2C9): 27.9 µM
- IC50 (CYP2C19): 10.9 µM

SMILES: CCCCC/C=C/C(=O)CCc1ccc(O)c(OC)c1 [6S, 6-shogaol]
- IC50 CYP2B6 (CYP2B6; [2]): 1.6 µg/mL (≈ 5.79 µM)
- IC50 CYP2A6 (CYP2A6; [3]): 23 µg/mL (≈ 83.2 µM)
- IC50 CYP3A4 (midazolam) (CYP3A4): 18 µg/mL (≈ 65.1 µM)
- IC50 CYP2C9 (CYP2C9; [4]): 0.9 µg/mL (≈ 3.26 µM)
- IC50 CYP2C19 (CYP2C19; [5]): 1.1 µg/mL (≈ 3.98 µM)

SMILES: CCCCCCC[C@H](O)CC(=O)CCc1ccc(O)c(OC)c1 [8G, 8-gingerol]
- IC50 CYP2B6 (CYP2B6; [2]): 2.6 µg/mL (≈ 8.06 µM)
- IC50 CYP2A6 (CYP2A6; [3]): 19 µg/mL (≈ 58.9 µM)
- IC50 CYP3A4 (midazolam) (CYP3A4): >32 µg/mL
- IC50 CYP2C9 (CYP2C9; [4]): 2.8 µg/mL (≈ 8.68 µM)
- IC50 CYP2C19 (CYP2C19; [5]): 2.6 µg/mL (≈ 8.06 µM)

SMILES: CCCCCCCCC[C@H](O)CC(=O)CCc1ccc(O)c(OC)c1 [10G, 10-gingerol]
- IC50 CYP2B6 (CYP2B6; microsomes): 1.5 µg/mL (≈ 4.28 µM)
- IC50 CYP2A6 (CYP2A6; microsomes): 34 µg/mL (≈ 97 µM)
- IC50 CYP3A4 (midazolam) (CYP3A4): >35 µg/mL
- IC50 CYP2C9 (CYP2C9; microsomes): 2.6 µg/mL (≈ 7.42 µM)
- IC50 CYP2C19 (CYP2C19; microsomes): 2.3 µg/mL (≈ 6.56 µM)
